Source: paper PMC3285688, “Active Site Mutations Change the Cleavage Specificity of Neprilysin” (PLoS ONE, 2012)

Tests used:
NEP [1] = assay: Degradation of peptide substrates by NEP: extent and cleavage sites (HPLC, mass spectrometry); details: for Cleavage site (bond cleaved): NEP and mutants, 20 mM MES pH 6.5, 37°C
Procedure: Degradation of insulin B chain by wild-type NEP was analyzed by reverse-phase HPLC following the appearance of each product as a function of time, Figure 1 . Product peaks were collected and subsequently analyzed by mass spectrometry to determine their identities. […] Based on the order of appearance of each peak, it is likely that insulin B chain1–10, insulin B chain1–11, insulin B chain1–14 and its partner peak insulin B chain15–30, insulin B chain17–30, and insulin B chain24–30 are all products of primary cleavages. These products appear at the first time point when approximately 15% hydrolysis of insulin B chain had occurred (30 minutes). At 30% hydrolysis (90 min.), peaks corresponding to insulin B chain1–5 and insulin B chain17–24 are observed. Peaks for insulin B chain1–16 and insulin B chain15–23 become apparent at >30% insulin B chain hydrolysis. […] It is likely that these are transient products that are subsequently cleaved contributing to other product peaks (i.e. insulin B chain24–30).
To further study the effect of mutations on cleavage site specificity, time course assays were also performed for the hydrolysis of the physiological substrate Aß1–40. Like the analysis of insulin B chain, a time course assay was first done with NEP to identify cleavage products, Figure 3 and Table 6 . After 15% hydrolysis of Aß1–40 (150 min.) by NEP there were six discernable product peaks corresponding to Aß1–16, Aß1–17, Aß10–17, Aß20–28, Aß20–29, and Aß20–30. […]
Cleavage of physiological peptides was measured via reverse phase high performance liquid chromatography (HPLC) following incubation of the purified NEP or its mutants with 15 µM insulin B chain (Sigma Aldrich), 24 µM Aß1–40 (Anaspec), or 64 µM leu-ENK (Sigma) in 100 µL of 20 mM MES, pH 6.5, at 37°C. […] Peptides and hydrolysis products were detected at 214 nm and quantified by measuring peak areas. Peptides obtained from HPLC were analyzed on an Applied Biosystems 4800 MALDI TOF/TOF Proteomics Analyzer at the University of Kentucky Proteomics core. […]

NEP [2] = details: cited from earlier work
From the text: Two other studies have identified NEP cleavage sites within Aß1–40 [25], [26].

[3] = test system: NEP and each of the studied mutants; assay: Inhibition of Glut-Ala-Ala-Phe-MNA hydrolysis by NEP inhibitors; format: biochemical, human
Procedure: Reactions of 400 µl contained 100 µM Glut-Ala-Ala-Phe-MNA, 1 µg of aminopeptidase and 15 to 100 ng of NEP or mutant NEP depending on their activity in 20 mM MES buffer, pH 6.5. Activity was monitored with a Spectra Max Gemini XS plate reader using an excitation wavelength of 340 nm and an emission wavelength of 425 nm.

For “glutaryl-Ala-Ala-Phe-4-methoxy-2-naphthylamide [Glut-Ala-Ala-Phe-MNA, fluorogenic peptide substrate]”, which “Cleavage site (bond cleaved)” value (NEP [1]) is on record?
The value was “Ala-Phe peptide bond”.

Which “Cleavage site (bond cleaved)” value (NEP [1]) does the source give for “Tyr-Gly-Gly-Phe-Leu [leu-ENK, leucine^5-enkephalin, leucine5-enkephalin (Tyr-Gly-Gly-Phe-Leu), physiological substrate]” here?
Its value is “Gly-Phe bond”.

For “Aß1–40: amyloid beta peptide 1–40, physiological substrate (Anaspec)”, which “Additional unreported cleavage sites detected in Aß1–40” value (NEP [1]) is on record?
Its value is “E^11-V^12, K^16-L^17, and L^17-V^18”.

And the “Cleavages of Aß1–40 detected by Leissring et al.” value (NEP [2])?
The value was “Cleavages at K^28-G^29 and G^29-A^30”.

What about the “Cleavages of Aß1–40 detected in two other studies and the current study” value (NEP [2]) of the same molecule?
Its value is “G^9-Y^10, F^19-F^20, and A^30-I^31”.

With `O=C(O)CCNC(=O)[C@H](Cc1ccc(-c2ccccc2)cc1)NCP(=O)(O)O` [CGS 24592] as the molecule, how does the “Inhibition of Glut-Ala-Ala-Phe-MNA hydrolysis” value ([3]; inhibitor at 10 nM) read?
The value was “completely inhibited”.

For `CC(C)C[C@H](NP(=O)(O)O[C@@H]1O[C@@H](C)[C@H](O)[C@@H](O)[C@H]1O)C(=O)N[C@@H](Cc1c[nH]c2ccccc12)C(=O)O` [phosphoramidon], which “Inhibition of Glut-Ala-Ala-Phe-MNA hydrolysis” value ([3]; inhibitor at 100 µM) is on record?
The value was “completely inhibited”.
